From ChEMBL document CHEMBL5291721, “A preclinical secondary pharmacology resource illuminates target-adverse drug reaction associations of marketed drugs” (Nat Commun, 2023)

Assays:
[1] = target: T1, Equilibrative nucleoside transporter 1 (Homo sapiens, UniProt Q99808)
T1 sequence (Q99808 whole entry): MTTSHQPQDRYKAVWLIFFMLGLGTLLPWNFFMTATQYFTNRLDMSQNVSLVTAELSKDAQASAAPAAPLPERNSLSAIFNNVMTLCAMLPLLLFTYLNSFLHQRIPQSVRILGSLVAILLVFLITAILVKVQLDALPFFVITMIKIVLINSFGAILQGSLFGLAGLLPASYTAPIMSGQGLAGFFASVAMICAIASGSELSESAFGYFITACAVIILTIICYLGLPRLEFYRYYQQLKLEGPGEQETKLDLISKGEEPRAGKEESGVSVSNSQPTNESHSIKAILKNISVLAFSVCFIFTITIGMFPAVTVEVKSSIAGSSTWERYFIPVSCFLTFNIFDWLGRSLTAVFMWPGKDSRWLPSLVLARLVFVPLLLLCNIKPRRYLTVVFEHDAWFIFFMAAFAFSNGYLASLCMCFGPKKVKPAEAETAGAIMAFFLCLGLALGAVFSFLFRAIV

[2] = target: Adenosine receptor A2a (Homo sapiens, UniProt P29274)
[3] = target: T2, 5-hydroxytryptamine receptor 3A (Homo sapiens, UniProt P46098); format: functional
T2 sequence (P46098 whole entry): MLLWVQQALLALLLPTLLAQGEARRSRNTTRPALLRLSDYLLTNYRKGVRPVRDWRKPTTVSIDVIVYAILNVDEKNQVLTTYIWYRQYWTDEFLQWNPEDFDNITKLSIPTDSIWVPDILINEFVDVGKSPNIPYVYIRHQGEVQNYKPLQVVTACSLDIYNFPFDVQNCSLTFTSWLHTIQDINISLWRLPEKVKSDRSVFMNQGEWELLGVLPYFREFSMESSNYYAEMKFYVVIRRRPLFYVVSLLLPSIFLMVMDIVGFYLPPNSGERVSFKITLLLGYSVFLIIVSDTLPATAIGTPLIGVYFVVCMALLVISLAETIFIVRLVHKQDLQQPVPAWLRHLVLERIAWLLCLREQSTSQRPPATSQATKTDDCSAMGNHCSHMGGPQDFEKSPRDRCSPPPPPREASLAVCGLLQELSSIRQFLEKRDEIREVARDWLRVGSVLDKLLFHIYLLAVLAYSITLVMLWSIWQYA

[4] = target: Gamma-aminobutyric acid receptor subunit alpha-1 (Rattus norvegicus, UniProt P62813)
[5] = target: T3, Type-1 angiotensin II receptor (Homo sapiens, UniProt P30556)
T3 sequence (P30556 whole entry): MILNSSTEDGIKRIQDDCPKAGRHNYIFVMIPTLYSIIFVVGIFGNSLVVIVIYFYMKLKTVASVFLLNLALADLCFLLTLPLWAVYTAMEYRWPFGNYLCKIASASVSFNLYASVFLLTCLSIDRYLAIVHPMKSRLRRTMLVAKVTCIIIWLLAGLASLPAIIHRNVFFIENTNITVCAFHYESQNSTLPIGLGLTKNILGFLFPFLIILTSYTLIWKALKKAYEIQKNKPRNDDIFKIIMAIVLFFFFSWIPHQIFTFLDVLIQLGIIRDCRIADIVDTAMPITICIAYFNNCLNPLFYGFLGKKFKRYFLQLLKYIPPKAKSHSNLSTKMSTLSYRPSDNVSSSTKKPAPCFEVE

[6] = target: Kappa-type opioid receptor (Homo sapiens, UniProt P41145)
[7] = target: T4, 5-hydroxytryptamine receptor 1A (Homo sapiens, UniProt P08908); format: functional, cell-based
T4 sequence (P08908 whole entry): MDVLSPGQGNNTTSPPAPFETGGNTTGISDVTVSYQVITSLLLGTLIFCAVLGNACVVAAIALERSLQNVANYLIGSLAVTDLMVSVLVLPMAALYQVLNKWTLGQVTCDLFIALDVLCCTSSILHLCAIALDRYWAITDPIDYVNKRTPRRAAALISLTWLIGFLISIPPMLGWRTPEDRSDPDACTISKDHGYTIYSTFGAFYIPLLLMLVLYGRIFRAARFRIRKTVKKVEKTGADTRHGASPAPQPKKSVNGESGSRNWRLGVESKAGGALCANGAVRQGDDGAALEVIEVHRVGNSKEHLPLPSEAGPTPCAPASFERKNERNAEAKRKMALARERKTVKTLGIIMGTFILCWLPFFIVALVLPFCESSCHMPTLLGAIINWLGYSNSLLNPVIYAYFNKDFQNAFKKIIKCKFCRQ

[8] = target: D(3) dopamine receptor (Homo sapiens, UniProt P35462)
[9] = target: Beta-1 adrenergic receptor (Homo sapiens, UniProt P08588); format: functional
[10] = target: T5, Progesterone receptor (Homo sapiens, UniProt P06401); format: functional
T5 sequence (P06401 whole entry): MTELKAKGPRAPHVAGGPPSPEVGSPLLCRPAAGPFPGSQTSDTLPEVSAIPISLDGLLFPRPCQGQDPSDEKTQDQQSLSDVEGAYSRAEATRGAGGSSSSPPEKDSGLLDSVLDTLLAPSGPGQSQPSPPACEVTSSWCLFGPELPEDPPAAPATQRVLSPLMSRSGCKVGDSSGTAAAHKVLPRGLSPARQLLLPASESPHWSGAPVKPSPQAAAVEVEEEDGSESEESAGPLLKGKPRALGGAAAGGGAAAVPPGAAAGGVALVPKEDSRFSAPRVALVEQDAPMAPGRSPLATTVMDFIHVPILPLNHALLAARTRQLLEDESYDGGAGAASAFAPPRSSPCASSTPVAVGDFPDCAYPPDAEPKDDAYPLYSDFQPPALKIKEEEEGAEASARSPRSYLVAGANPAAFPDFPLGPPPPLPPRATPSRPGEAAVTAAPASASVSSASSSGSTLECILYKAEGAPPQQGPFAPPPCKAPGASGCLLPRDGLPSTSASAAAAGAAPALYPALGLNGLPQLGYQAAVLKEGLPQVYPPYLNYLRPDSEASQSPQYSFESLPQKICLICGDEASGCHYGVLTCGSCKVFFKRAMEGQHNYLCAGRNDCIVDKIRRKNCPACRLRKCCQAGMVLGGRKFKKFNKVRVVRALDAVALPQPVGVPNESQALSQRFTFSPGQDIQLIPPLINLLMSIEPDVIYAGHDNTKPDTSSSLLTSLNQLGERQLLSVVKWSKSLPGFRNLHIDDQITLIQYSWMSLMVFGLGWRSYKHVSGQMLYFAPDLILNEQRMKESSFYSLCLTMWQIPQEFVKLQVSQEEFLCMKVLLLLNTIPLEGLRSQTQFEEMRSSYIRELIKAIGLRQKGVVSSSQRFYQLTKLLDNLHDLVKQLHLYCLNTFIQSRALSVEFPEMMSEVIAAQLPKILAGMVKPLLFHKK
Also: assay procedure not described here.

Gamma-aminobutyric acid receptor subunit alpha-1, sequence (P62813 whole entry): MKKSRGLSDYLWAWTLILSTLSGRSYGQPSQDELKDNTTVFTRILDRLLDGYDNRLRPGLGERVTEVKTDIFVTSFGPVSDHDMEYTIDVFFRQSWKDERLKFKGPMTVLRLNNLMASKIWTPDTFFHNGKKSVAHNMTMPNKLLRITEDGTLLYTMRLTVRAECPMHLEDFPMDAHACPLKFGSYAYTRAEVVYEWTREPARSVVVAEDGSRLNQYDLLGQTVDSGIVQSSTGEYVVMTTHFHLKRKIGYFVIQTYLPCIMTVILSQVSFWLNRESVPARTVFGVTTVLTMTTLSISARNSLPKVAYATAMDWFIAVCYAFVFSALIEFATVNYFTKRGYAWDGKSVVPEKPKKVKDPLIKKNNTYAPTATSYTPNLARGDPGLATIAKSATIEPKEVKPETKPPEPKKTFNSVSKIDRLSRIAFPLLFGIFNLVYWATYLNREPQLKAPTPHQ
D(3) dopamine receptor, sequence (P35462 whole entry): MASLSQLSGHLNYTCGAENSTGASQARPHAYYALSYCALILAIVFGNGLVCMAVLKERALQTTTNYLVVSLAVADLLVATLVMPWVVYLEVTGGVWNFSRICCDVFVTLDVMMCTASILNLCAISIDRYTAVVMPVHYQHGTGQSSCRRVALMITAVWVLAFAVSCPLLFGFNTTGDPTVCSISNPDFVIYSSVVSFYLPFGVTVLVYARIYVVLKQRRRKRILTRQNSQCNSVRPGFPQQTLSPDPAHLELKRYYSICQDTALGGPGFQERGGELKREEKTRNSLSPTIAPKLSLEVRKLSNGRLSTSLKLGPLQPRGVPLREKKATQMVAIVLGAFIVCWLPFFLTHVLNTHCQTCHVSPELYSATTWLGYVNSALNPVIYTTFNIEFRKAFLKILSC
Kappa-type opioid receptor, sequence (P41145 whole entry): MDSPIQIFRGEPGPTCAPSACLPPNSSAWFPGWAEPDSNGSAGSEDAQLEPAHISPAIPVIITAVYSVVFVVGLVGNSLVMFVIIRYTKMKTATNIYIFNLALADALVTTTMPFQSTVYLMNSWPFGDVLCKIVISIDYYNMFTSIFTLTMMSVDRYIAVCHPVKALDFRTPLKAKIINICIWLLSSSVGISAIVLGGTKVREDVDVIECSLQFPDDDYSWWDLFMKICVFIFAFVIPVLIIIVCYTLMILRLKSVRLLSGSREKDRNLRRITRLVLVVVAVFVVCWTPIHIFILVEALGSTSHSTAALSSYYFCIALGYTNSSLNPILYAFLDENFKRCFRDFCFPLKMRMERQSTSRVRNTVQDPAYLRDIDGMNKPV
Adenosine receptor A2a, sequence (P29274 whole entry): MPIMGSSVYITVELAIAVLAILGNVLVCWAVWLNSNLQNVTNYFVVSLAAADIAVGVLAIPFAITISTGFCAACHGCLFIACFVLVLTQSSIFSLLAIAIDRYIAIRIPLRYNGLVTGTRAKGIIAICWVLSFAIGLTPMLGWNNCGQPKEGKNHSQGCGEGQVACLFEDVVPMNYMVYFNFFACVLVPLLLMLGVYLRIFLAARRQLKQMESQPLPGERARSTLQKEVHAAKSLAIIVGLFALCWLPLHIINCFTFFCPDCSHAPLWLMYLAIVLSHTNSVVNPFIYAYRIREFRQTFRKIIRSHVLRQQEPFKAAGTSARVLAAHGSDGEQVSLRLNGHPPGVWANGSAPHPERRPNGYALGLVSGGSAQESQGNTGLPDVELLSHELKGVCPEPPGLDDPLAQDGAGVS
Beta-1 adrenergic receptor, sequence (P08588 whole entry): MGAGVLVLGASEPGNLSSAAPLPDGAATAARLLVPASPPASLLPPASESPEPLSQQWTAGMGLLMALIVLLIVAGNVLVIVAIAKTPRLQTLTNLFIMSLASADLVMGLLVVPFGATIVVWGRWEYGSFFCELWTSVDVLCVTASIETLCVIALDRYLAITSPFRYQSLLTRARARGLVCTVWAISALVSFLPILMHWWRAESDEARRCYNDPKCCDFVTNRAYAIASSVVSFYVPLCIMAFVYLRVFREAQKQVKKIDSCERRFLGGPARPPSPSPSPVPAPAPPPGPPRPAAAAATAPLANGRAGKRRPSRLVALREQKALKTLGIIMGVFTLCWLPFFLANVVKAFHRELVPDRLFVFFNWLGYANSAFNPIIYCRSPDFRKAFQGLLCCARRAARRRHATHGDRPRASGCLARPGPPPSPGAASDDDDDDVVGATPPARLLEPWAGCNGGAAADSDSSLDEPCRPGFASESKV

Structure (SMILES)	AC50 [1]	AC50 [2]	AC50 [3]	AC50 [4]	AC50 [5]	AC50 [6]	AC50 [7]	AC50 [8]	AC50 [9]	AC50 [10]
Oc1cc(O)c(Cl)cn1	> 30 µM	> 30 µM	> 30 µM	> 30 µM	> 30 µM	> 30 µM	> 30 µM	> 30 µM	> 30 µM	–
C[N+]12CCC(CC1)C(OC(=O)C(O)(c1ccccc1)c1ccccc1)C2 (centres undefined)	–	> 30 µM	> 30 µM	–	> 30 µM	> 30 µM	> 30 µM	> 30 µM	> 30 µM	> 30 µM
Cc1cc(=O)n(-c2ccccc2)n1C [ANTIPYRINE]	> 30 µM	> 30 µM	> 30 µM	> 10 µM	> 30 µM	> 10 µM	> 30 µM	> 10 µM	> 10 µM	–
CO/N=C(\C(=O)N[C@@H]1C(=O)N2C(C(=O)O)=CCS[C@H]12)c1csc(N)n1 [CEFTIZOXIME]	> 30 µM	> 30 µM	–	–	> 30 µM	–	> 30 µM	–	> 30 µM	> 30 µM
CO/N=C(\C(=O)N[C@@H]1C(=O)N2C(C(=O)O)=C(CSc3nc(=O)c(=O)[nH]n3C)CS[C@H]12)c1csc(N)n1 [CEFTRIAXONE]	> 30 µM	> 30 µM	> 30 µM	–	> 30 µM	> 30 µM	> 30 µM	> 30 µM	> 30 µM	> 30 µM
COc1cc(N)c(Cl)cc1C(=O)NC1CCN(CCCOc2ccc(F)cc2)CC1OC (centres undefined) [CISAPRIDE]	> 30 µM	> 30 µM	> 30 µM	> 10 µM	> 30 µM	16.7 µM	> 10 µM	6.3 µM	> 10 µM	–
CCOC(=O)C(C)(C)Oc1ccc(Cl)cc1 [CLOFIBRATE]	> 30 µM	> 30 µM	> 30 µM	> 10 µM	> 30 µM	> 10 µM	> 10 µM	> 30 µM	> 10 µM	–
CCCCOc1ccc(C(=O)CCN2CCCCC2)cc1 [DYCLONINE]	> 30 µM	> 30 µM	> 10 µM	> 10 µM	> 30 µM	> 10 µM	> 10 µM	> 10 µM	> 10 µM	–
CC(C)NC[C@H](O)COc1ccc(CC(N)=O)cc1 [ESATENOLOL]	> 30 µM	> 30 µM	> 10 µM	–	> 30 µM	> 10 µM	> 10 µM	> 10 µM	–	–
CCc1cc2c(s1)-n1c(C)nnc1CN=C2c1ccccc1Cl [ETIZOLAM]	> 30 µM	> 30 µM	> 30 µM	–	> 30 µM	2.5 µM	> 30 µM	> 30 µM	> 30 µM	> 30 µM
O=C1Nc2ccc(Cl)cc2C(c2ccccc2Cl)=NC1O (centres undefined) [LORAZEPAM]	> 30 µM	> 30 µM	> 30 µM	> 10 µM	> 30 µM	> 10 µM	> 10 µM	> 10 µM	> 10 µM	–
Cc1ccnc2c1NC(=O)c1cccnc1N2C1CC1 [NEVIRAPINE]	> 30 µM	15.2 µM	> 10 µM	> 10 µM	> 30 µM	> 10 µM	> 10 µM	> 10 µM	> 10 µM	–
CO[C@H]1C[C@H](O[C@H]2CC[C@@]3(C)[C@H](CC[C@@H]4[C@@H]3CC[C@]3(C)[C@@H](C5=CC(=O)OC5)[C@@H](OC(C)=O)C[C@]43O)C2)O[C@@H](C)[C@@H]1O [OLEANDRIN]	–	–	> 30 µM	> 30 µM	–	> 30 µM	> 30 µM	> 30 µM	–	–
Fc1ccc([C@@H]2CCNC[C@H]2COc2ccc3c(c2)OCO3)cc1 [PAROXETINE]	> 30 µM	> 30 µM	> 10 µM	> 10 µM	> 30 µM	–	17 µM	> 10 µM	> 10 µM	–
CCC(=O)O[C@](Cc1ccccc1)(c1ccccc1)[C@H](C)CN(C)C [PROPOXYPHENE]	> 30 µM	> 30 µM	> 30 µM	> 10 µM	> 30 µM	–	> 10 µM	> 10 µM	> 10 µM	–
O=c1c(O)c(-c2ccc(O)c(O)c2)oc2cc(O)cc(O)c12 [QUERCETIN]	> 30 µM	> 30 µM	> 30 µM	–	> 30 µM	12.7 µM	> 30 µM	> 30 µM	–	–
CCOC(=O)c1ccc(C#Cc2ccc3c(c2)C(C)(C)CCS3)nc1 [TAZAROTENE]	> 30 µM	> 30 µM	> 30 µM	> 10 µM	> 30 µM	> 10 µM	> 30 µM	> 30 µM	> 10 µM	–
CCCCCCCC(=O)CC[C@@H]1[C@@H](C/C=C\CCCC(=O)OC(C)C)[C@@H](O)C[C@H]1O [UNOPROSTONE ISOPROPYL]	–	–	–	–	–	–	–	> 30 µM	–	> 30 µM
CC(C(=O)O)c1ccc2c(c1)CC(=O)c1ccccc1S2 (centres undefined) [ZALTOPROFEN]	> 30 µM	> 30 µM	> 30 µM	–	> 30 µM	24 µM	> 30 µM	> 30 µM	–	> 30 µM
